{"source": "patent US5079261A", "about": "“Use of lipoxin A4 and its derivatives as antagonists for slow-reacting substances of anaphylaxis” (Brigham and Women's Hospital, priority 1989, dated 1992)", "key": {"[1]": {"tested_on": "rat mesangial cells", "assay": "IP3 formation ([3H]-inositol labeled mesangial cells) in response to LTD4 or LXA4", "type": "cell-based", "conditions": "Mesangial cell, 5 s", "description": "(§1) Statistical: ANOVA with Bonferroni modification for multiple pre-planned comparisons was used, within each group and between groups, to compare the changes in various whole kidney and microcirculatory indices which occurred from one period to another. In phosphoinositide generation studies, increases in [^3 H]-IP3 CPMs in agonist-treated cells were compared to vehicle-treated controls using upaired students t-test. Differences were considered significant at a p value ≤0.05. All values are reported as means ± SEM.\nThe isolated glomeruli were harvested from the surface of the 75 μm filter and washed twisce with the Hank's Media. […] Mesangial cell colonies were subcultured in 60 mm culture dishes, and experiments were carried out in cells from passages 2 to 12.\n(§2) To label mesangial cells with [^3 H]-Inositol, cells grown to confluence in 60 mm culture dishes (10^6 cells/dish) were cultured in RPMI, supplemented with 10% dialyzed fetal calf serum and [^3 H]-inositol (1 μCi/ml) in a total incubation volume of 5 ml.\nReactions were terminated by the addition of cold 10% trichloroacetic acid (TCA), the supernatants subjected to ether extraction, and the aqueous phase titrated to neutral pH using 0.1 M Tris base. […] To ensure the reliability of the separation technique, the same methods for extraction and separation were applied to known amounts of [^3 H]-IP1, [^3 H]IP2, and [^3 H]-IP3 standards (New England Nuclear) mixed in a ratio of 3:2:1, respectively, and subjected to separation by HPLC."}, "[2]": {"tested_on": "LTD4 receptor", "assay": "Inhibition of LTD4-induced IP3 formation in mesangial cells", "type": "cell-based, rat", "experimental": "Mesangial Cell Culture: Rat mesangial cells were isolated and cultured as described previously (Harris, R. C., et al., J. Clin. Invest. 82:1028-1039(1988). Briefly, kidneys were exicesed from two young Sprague-Dawly rats under sterile conditions, and the cortices removed, minced, and washed several times in Hank's Balanced Salt Solution, containing 10 mM HEPES pH 7.4, amphotericin (0.25 μg/ml), and gentamicin (50 μg/ml). The tissue was then passed through consecutive sterilized stainless mesh filters with pore sizes of 212 μm, 150 μm, and then onto the final mesh of 75 μm. The isolated glomeruli were harvested from the surface of the 75 μm. The isolated glomeruli were harvested from the surface of the 75 μm filter and washed twisce with the Hank's Media. The glomeruli were suspended in RPMI 1640 Medium with 15% Fetal Bovine Serum (Givco), penicillin (100 μ/ml) and streptomycin (100 μg/ml) (Gibco), plated into 100 mm cell culture petri dishes, and incubated at 37° C. in a humidified atmosphere of 95% air and […] 5% CO2. Mesangial cell colonies were subcultured in 60 mm culture dishes, and experiments were carried out in cells from passages 2 to 12. The criteria used to establish the identify of mesangial cells were as described previously (Harris, R. C., et al., J. Clin. Invest. 82:1028-1039 (1988)). Cells were routinely grown in RPMI-1640, supplemented with 20% fetal calf serum, penicillin 100 μ/ml, and streptomycin 100 μg/ml. […] All eicosanoids were stored under argon at -70° C. in methanol and their purity and quantity verified periodically by ultraviolet scanning and high pressure liquid chromatography (Serhan, C. N. et al., J. Biol. Chem. 261:16340 (1986)).\nas §2\nReactions were terminated by the addition of cold 10% trichloroacetic acid (TCA), the supernatants subjected to ether extraction, and the aqueous phase titrated to neutral pH using 0.1 M Tris base. [^3 H]-IP1, [^3 H]-IP2, and [^3 H]-IP3 in the aqueous phase were separated and quantitated by anion exchange column chromatography, using the method of Berridge et al. (Berridge, M. J., Biochem. J. 220:345-360 (1984)). To ensure the reliability of the separation technique, the same methods for extraction and separation were applied to known amounts of [^3 H]-IP1, [^3 H]IP2, and [^3 H]-IP3 standards (New England Nuclear) mixed in a ratio of 3:2:1, respectively, and subjected to separation by HPLC. The latter was performed using established methodology described previously (Cunha-Melo, J. R., et al., J. Biol. Chem. 262:11455-11463 (1987))."}, "[3]": {"assay": "Renal function in vivo in anesthetized rats (AP, Hct, RPF, GFR) during intrarenal arterial infusion", "parameters": "species or system male Munich-Wistar rats", "conditions": "for AP / GFR / Hct / RPF: LXA4 20-min infusion, n=3", "description": "as §1\nInulin and para-aminohippurate (PAH) clearances Were used to measure GFR and effective RPF. A needle was placed at the take-off of the left renal artery through which a maintenance infusion of 0.9% NaCl at a rate of 0.05 ml/min was initiated. […] Two experimental groups\nGroup I (n=14). First period: Clearances were performed during vehicle infusion.\nGroup II (n=12). First period: Clearances were performed during vehicle infusion."}, "[4]": {"tested_on": "guinea pig lung", "conditions": "cited from earlier work"}, "[5]": {"tested_on": "neutrophils", "conditions": "cited from earlier work"}, "[6]": {"target": "T1, mesangial cell LTD4 receptor (Rattus norvegicus, UniProt Q924T8)", "T1 sequence (Q924T8 1-339)": "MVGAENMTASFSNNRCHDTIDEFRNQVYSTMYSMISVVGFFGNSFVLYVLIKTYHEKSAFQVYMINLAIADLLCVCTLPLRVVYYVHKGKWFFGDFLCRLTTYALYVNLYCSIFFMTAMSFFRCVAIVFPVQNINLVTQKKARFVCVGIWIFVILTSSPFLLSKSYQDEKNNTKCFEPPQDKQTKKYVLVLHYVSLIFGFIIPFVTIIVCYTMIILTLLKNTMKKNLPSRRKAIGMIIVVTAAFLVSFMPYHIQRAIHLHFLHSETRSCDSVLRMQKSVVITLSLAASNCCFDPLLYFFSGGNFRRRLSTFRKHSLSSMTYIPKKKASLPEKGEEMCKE", "assay": "biochemical", "protocol": "Mesangial Cell Culture: Rat mesangial cells were isolated and cultured as described previously (Harris, R. C., et al., J. Clin. Invest. 82:1028-1039(1988). Briefly, kidneys were exicesed from two young Sprague-Dawly rats under sterile conditions, and the cortices removed, minced, and washed several times in Hank's Balanced Salt Solution, containing 10 mM HEPES pH 7.4, amphotericin (0.25 μg/ml), and gentamicin (50 μg/ml). The tissue was then passed through consecutive sterilized stainless mesh filters with pore sizes of 212 μm, 150 μm, and then onto the final mesh of 75 μm. The isolated glomeruli were harvested from the surface of the 75 μm. The isolated glomeruli were harvested from the surface of the 75 μm filter and washed twisce with the Hank's Media. The glomeruli were suspended in RPMI 1640 Medium with 15% Fetal Bovine Serum (Givco), penicillin (100 μ/ml) and streptomycin (100 μg/ml) (Gibco), plated into 100 mm cell culture petri dishes, and incubated at 37° C. in a humidified atmosphere of 95% air and 5% air and 5% CO2. Mesangial cell colonies were subcultured in 60 mm culture dishes, and experiments were carried out in cells from passages 2 to 12. […] Cells were routinely grown in RPMI-1640, supplemented with 20% fetal calf serum, penicillin 100 μ/ml, and streptomycin 100 μg/ml.\nBinding studies were routinely performed at 4° C. […] The cells were then dissolved with 1.0 ml of 1.0 N NaOH, neutralized with HCl, dissolved in 10 ml of Aquasol (New England Nuclear, Boston, MA), and the bound radioactivity was determined using a scintillation counter (Beckman Instruments). […] Cell density was determined by counting cells from replicate wells, using a Coulter Counter ZBi (Coulter Electronics, Inc., Hialeah, Fla.)."}, "[7]": {"conditions": "Group II, third period, LTD4 in the presence of LXA4"}, "[8]": {"conditions": "LTD4 14.0 μg/kg/min + LXA4, p<0.05 vs baseline"}, "[9]": {"conditions": "LTD4 20.0 μg/kg/min + LXA4, p<0.05 vs baseline"}}}
{"molecule": "CCCCC[C@H](O)/C=C/C=C\\C=C\\C=C\\[C@@H](O)[C@@H](O)CCCC(=O)O", "note": "[LXA4, (5S,6R,15S)-5,6,15-trihydroxy-7,9,13-trans-11-cis-eicosatetraenoic acid]", "values": [{"measurement": "activation at 0.001 µM", "setting": "[1]; 1 nM, 5 sec, n=3, p<0.05, read-out: increase in [3H]-IP3 counts over controls", "result": "46 ± 14", "unit": "%"}, {"measurement": "activation at 0.01 µM", "setting": "[1]; 10 nM LXA4, 5 sec, n=6, p<0.05, read-out: increase in [3H]-IP3 counts over controls", "result": "50 ± 21", "unit": "%"}, {"measurement": "activation at 0.05 µM", "setting": "[1]; 50 nM LXA4, 5 sec, n=3, p<0.05, read-out: increase in [3H]-IP3 counts over controls", "result": "44 ± 22", "unit": "%"}, {"measurement": "activation at 0.1 µM", "setting": "[1]; 100 nM, 5 sec, n=5, p<0.05, read-out: increase in [3H]-IP3 counts over controls", "result": "45 ± 26", "unit": "%"}, {"measurement": "Inhibition of LTD4-induced IP3 generation", "setting": "[2]; pre-incubation with 100 nM LXA4 for 10 min, then 10 nM LTD4 (n=3)", "result": "completely prevented"}, {"measurement": "Inhibition of LTD4-induced stimulation of IP3 formation (FIG. 2)", "setting": "[2]; preexposure to 100 nM LXA4 for 10 minutes", "result": "abrogation"}, {"measurement": "GFR and RPF change (in words)", "setting": "[3]; Group II, LXA4 infusion, period 2", "result": "moderate increases"}, {"measurement": "AP", "setting": "[3]; Group II, period 2, subgroup A", "result": "121 ± 4", "unit": "mmHg"}, {"measurement": "GFR", "setting": "[3]; Group II, period 2, subgroup A", "result": "1.20 ± 0.20", "unit": "mL/min"}, {"measurement": "Hct", "setting": "[3]; Group II, period 2, subgroup A", "result": "43.7 ± 0.9", "unit": "Vol./dl"}, {"measurement": "RPF", "setting": "[3]; Group II, period 2, subgroup A", "result": "4.50 ± 0.08", "unit": "mL/min"}, {"measurement": "AP", "setting": "[3]; Group II, period 2, subgroup B", "result": "120 ± 0", "unit": "mmHg"}, {"measurement": "GFR", "setting": "[3]; Group II, period 2, subgroup B", "result": "0.98 ± 0.06", "unit": "mL/min"}, {"measurement": "Hct", "setting": "[3]; Group II, period 2, subgroup B", "result": "44.7 ± 1.2", "unit": "Vol./dl"}, {"measurement": "RPF", "setting": "[3]; Group II, period 2, subgroup B", "result": "4.76 ± 0.83", "unit": "mL/min"}, {"measurement": "AP", "setting": "[3]; Group II, period 2, subgroup C", "result": "127 ± 2", "unit": "mmHg"}, {"measurement": "GFR", "setting": "[3]; Group II, period 2, subgroup C", "result": "1.30 ± 0.10", "unit": "mL/min"}, {"measurement": "Hct", "setting": "[3]; Group II, period 2, subgroup C", "result": "45.2 ± 0.7", "unit": "Vol./dl"}, {"measurement": "RPF", "setting": "[3]; Group II, period 2, subgroup C", "result": "4.87 ± 0.10", "unit": "mL/min"}, {"measurement": "AP", "setting": "[3]; Group II, period 2, subgroup D", "result": "108 ± 3", "unit": "mmHg"}, {"measurement": "GFR", "setting": "[3]; Group II, period 2, subgroup D", "result": "1.27 ± 0.04", "unit": "mL/min"}, {"measurement": "Hct", "setting": "[3]; Group II, period 2, subgroup D", "result": "44.5 ± 0.3", "unit": "Vol./dl"}, {"measurement": "RPF", "setting": "[3]; Group II, period 2, subgroup D", "result": "4.58 ± 0.20", "unit": "mL/min"}, {"measurement": "Effect on LTD4-induced falls in RPF", "setting": "[3]; [7]", "result": "without effect"}, {"measurement": "Effect on LTD4-provoked reduction in GFR", "setting": "[3]; [7]", "result": "marked blunting"}, {"measurement": "Mean percent fall in GFR during LTD4 in the presence of LXA4", "setting": "[3]; LTD4 0.5 μg/kg/min + LXA4", "result": 9, "unit": "%"}, {"measurement": "Mean percent fall in RPF during LTD4 in the presence of LXA4", "setting": "[3]; LTD4 0.5 μg/kg/min + LXA4, p<0.05 vs baseline", "result": 20, "unit": "%"}, {"measurement": "Mean percent fall in GFR during LTD4 in the presence of LXA4", "setting": "[3]; LTD4 7.0 μg/kg/min + LXA4", "result": 11, "unit": "%"}, {"measurement": "Mean percent fall in RPF during LTD4 in the presence of LXA4", "setting": "[3]; LTD4 7.0 μg/kg/min + LXA4, p<0.05 vs baseline", "result": 37, "unit": "%"}, {"measurement": "Mean percent fall in GFR during LTD4 in the presence of LXA4", "setting": "[3]; [8]", "result": 42, "unit": "%"}, {"measurement": "Mean percent fall in RPF during LTD4 in the presence of LXA4", "setting": "[3]; [8]", "result": 51, "unit": "%"}, {"measurement": "Mean percent fall in GFR during LTD4 in the presence of LXA4", "setting": "[3]; [9]", "result": 50, "unit": "%"}, {"measurement": "Mean percent fall in RPF during LTD4 in the presence of LXA4", "setting": "[3]; [9]", "result": 68, "unit": "%"}, {"measurement": "Contraction of pulmonary smooth muscle", "setting": "[4]", "result": "contract pulmonary smooth muscle"}, {"measurement": "Neutrophil superoxide generation, elastase release and leukocyte chemotaxis", "setting": "[5]", "result": "induce neutrophils to generate superoxide radicals, release elastase, and promote chemotaxis by leukocytes"}, {"measurement": "IC50", "setting": "[6]", "result": 100, "unit": "nM"}]}
